Assay results as given in PubChem BioAssay AID248 (DTP/NCI, 2004).
Where “and” joins values, the source holds several entries; their conditions need not be identical. Identical values can stand only once. Toxic doses and inconclusive results are not listed. No stated cut-off is given here; in the data, active means T/C of 150% or more; inactive means T/C below 125%.

Tested on: L1210 leukemia ip in BDF1 mice, survival T/C
Experiment: NCI In Vivo Anticancer Drug Screen. Data for tumor model L1210 Leukemia (intraperitoneal) in B6D2F1 (BDF1) mice
Conditions: endpoint: mean survival time, higher = longer survival
How it was run: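 Antitumor effect is assessed in tumor-bearing animals. Survival in the compound arm is compared with a vehicle-dosed control arm and expressed as their quotient.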

Measured: T/C

COC(=O)[C@@H](O)[C@](O)(CCC(C)C)C(=O)O[C@@H]1C(OC)=C[C@]23CCCN2CCc2cc4c(cc2[C@H]13)OCO4
inactive: dose: 0.12 mg/kg/injection, schedule: Q03HX024 (ip), vehicle: saline 98 % of control | dose: 0.25 mg/kg/injection, schedule: Q01DX009 (ip), vehicle: saline 108 % of control | dose: 0.25 mg/kg/injection, schedule: Q03HX008 (ip), vehicle: saline 106 % of control | dose: 0.25 mg/kg/injection, schedule: Q03HX016 (ip), vehicle: saline 101 % of control | dose: 0.25 mg/kg/injection, schedule: Q03HX024 (ip), vehicle: saline 107 % of control | dose: 0.5 mg/kg/injection, schedule: Q01DX006 (iv), vehicle: saline 100 % of control | dose: 0.5 mg/kg/injection, schedule: Q01DX009 (ip), vehicle: saline 107 % of control | dose: 0.5 mg/kg/injection, schedule: Q01DX009 (oral), vehicle: saline 103 % of control | dose: 0.5 mg/kg/injection, schedule: Q01DX009 (sc), vehicle: saline 104 % of control | dose: 0.5 mg/kg/injection, schedule: Q03HX008 (ip), vehicle: saline 104 % of control | dose: 0.5 mg/kg/injection, schedule: Q03HX016 (ip), vehicle: saline 108 % of control | dose: 0.5 mg/kg/injection, schedule: Q03HX024 (ip), vehicle: saline 100 % of control | dose: 0.93 mg/kg/injection, schedule: Q01DX009 (ip), vehicle: water 106 % of control | dose: 1.0 mg/kg/injection, schedule: Q01DX006 (iv), vehicle: saline 102 % of control | dose: 1.0 mg/kg/injection, schedule: Q01DX009 (ip), vehicle: saline 115 % of control | dose: 1.0 mg/kg/injection, schedule: Q01DX009 (oral), vehicle: saline 93 % of control | dose: 1.0 mg/kg/injection, schedule: Q01DX009 (sc), vehicle: saline 104 % of control | dose: 1.0 mg/kg/injection, schedule: Q03HX008 (ip), vehicle: saline 101 % of control and 106 % of control | dose: 1.0 mg/kg/injection, schedule: Q03HX016 (ip), vehicle: saline 101 % of control and 106 % of control | dose: 1.0 mg/kg/injection, schedule: Q03HX024 (ip), vehicle: saline 100 % of control and 114 % of control | dose: 1.0 mg/kg/injection, schedule: Q04DX003 (ip), vehicle: saline 106 % of control | dose: 1.85 mg/kg/injection, schedule: Q01DX009 (ip), vehicle: water 109 % of control | dose: 1.87 mg/kg/injection, schedule: Q01DX009 (ip), vehicle: water 109 % of control | dose: 1.88 mg/kg/injection, schedule: Q01DX009 (ip), vehicle: water 114 % of control | dose: 2.0 mg/kg/injection, schedule: Q01DX001 (ip), vehicle: saline 102 % of control | dose: 2.0 mg/kg/injection, schedule: Q01DX001 (iv), vehicle: saline 102 % of control | dose: 2.0 mg/kg/injection, schedule: Q01DX001 (oral), vehicle: saline 97 % of control | dose: 2.0 mg/kg/injection, schedule: Q01DX001 (sc), vehicle: saline 104 % of control | dose: 2.0 mg/kg/injection, schedule: Q01DX006 (iv), vehicle: saline 103 % of control and 108 % of control | dose: 2.0 mg/kg/injection, schedule: Q01DX009 (ip), vehicle: saline 107 % of control and 111 % of control | dose: 2.0 mg/kg/injection, schedule: Q01DX009 (oral), vehicle: saline 108 % of control | dose: 2.0 mg/kg/injection, schedule: Q01DX009 (sc), vehicle: saline 106 % of control | dose: 2.0 mg/kg/injection, schedule: Q03HX008 (ip), vehicle: saline 105 % of control and 113 % of control | dose: 2.0 mg/kg/injection, schedule: Q03HX016 (ip), vehicle: saline 96 % of control and 107 % of control | dose: 2.0 mg/kg/injection, schedule: Q03HX024 (ip), vehicle: saline 104 % of control | dose: 2.0 mg/kg/injection, schedule: Q04DX003 (ip), vehicle: saline 106 % of control | dose: 2.0 mg/kg/injection, schedule: Q08DX002 (ip), vehicle: saline 98 % of control | dose: 4.0 mg/kg/injection, schedule: Q01DX001 (ip), vehicle: saline 106 % of control | dose: 4.0 mg/kg/injection, schedule: Q01DX001 (iv), vehicle: saline 101 % of control | dose: 4.0 mg/kg/injection, schedule: Q01DX001 (oral), vehicle: saline 100 % of control | dose: 4.0 mg/kg/injection, schedule: Q01DX001 (sc), vehicle: saline 114 % of control | dose: 4.0 mg/kg/injection, schedule: Q01DX006 (iv), vehicle: saline 103 % of control and 111 % of control | dose: 4.0 mg/kg/injection, schedule: Q01DX009 (ip), vehicle: saline 116 % of control and 124 % of control | dose: 4.0 mg/kg/injection, schedule: Q01DX009 (oral), vehicle: saline 113 % of control and 114 % of control and 120 % of control | dose: 4.0 mg/kg/injection, schedule: Q01DX009 (sc), vehicle: saline 113 % of control | dose: 4.0 mg/kg/injection, schedule: Q03HX008 (ip), vehicle: saline 114 % of control | dose: 4.0 mg/kg/injection, schedule: Q03HX016 (ip), vehicle: saline 103 % of control | dose: 4.0 mg/kg/injection, schedule: Q04DX003 (ip), vehicle: saline 110 % of control and 113 % of control | dose: 4.0 mg/kg/injection, schedule: Q08DX002 (ip), vehicle: saline 108 % of control | dose: 5.0 mg/kg/injection, schedule: Q01DX009 (ip), vehicle: saline 116 % of control | dose: 8.0 mg/kg/injection, schedule: Q01DX001 (ip), vehicle: saline 104 % of control and 105 % of control | dose: 8.0 mg/kg/injection, schedule: Q01DX001 (iv), vehicle: saline 106 % of control and 115 % of control | dose: 8.0 mg/kg/injection, schedule: Q01DX001 (oral), vehicle: saline 100 % of control | dose: 8.0 mg/kg/injection, schedule: Q01DX001 (sc), vehicle: saline 110 % of control and 115 % of control | dose: 8.0 mg/kg/injection, schedule: Q01DX006 (iv), vehicle: saline 120 % of control | dose: 8.0 mg/kg/injection, schedule: Q01DX009 (oral), vehicle: saline 114 % of control | dose: 8.0 mg/kg/injection, schedule: Q01DX009 (sc), vehicle: saline 122 % of control | dose: 8.0 mg/kg/injection, schedule: Q04DX003 (ip), vehicle: saline 101 % of control and 107 % of control | dose: 8.0 mg/kg/injection, schedule: Q08DX002 (ip), vehicle: saline 110 % of control | dose: 10.0 mg/kg/injection, schedule: Q01DX009 (ip), vehicle: saline 116 % of control | dose: 16.0 mg/kg/injection, schedule: Q01DX001 (ip), vehicle: saline 108 % of control and 112 % of control | dose: 16.0 mg/kg/injection, schedule: Q01DX001 (iv), vehicle: saline 106 % of control and 107 % of control | dose: 16.0 mg/kg/injection, schedule: Q01DX001 (oral), vehicle: saline 107 % of control and 112 % of control | dose: 16.0 mg/kg/injection, schedule: Q01DX001 (sc), vehicle: saline 111 % of control and 118 % of control | dose: 16.0 mg/kg/injection, schedule: Q01DX006 (iv), vehicle: saline 122 % of control | dose: 16.0 mg/kg/injection, schedule: Q01DX009 (sc), vehicle: saline 89 % of control | dose: 16.0 mg/kg/injection, schedule: Q04DX003 (ip), vehicle: saline 100 % of control | dose: 16.0 mg/kg/injection, schedule: Q08DX002 (ip), vehicle: saline 106 % of control and 111 % of control | dose: 20.0 mg/kg/injection, schedule: Q01DX009 (ip), vehicle: saline 115 % of control | dose: 32.0 mg/kg/injection, schedule: Q01DX001 (ip), vehicle: saline 110 % of control | dose: 32.0 mg/kg/injection, schedule: Q01DX001 (oral), vehicle: saline 108 % of control and 118 % of control | dose: 32.0 mg/kg/injection, schedule: Q04DX003 (ip), vehicle: saline 107 % of control | dose: 32.0 mg/kg/injection, schedule: Q08DX002 (ip), vehicle: saline 102 % of control

COC(C)(C)C(N)C(=O)O (stereo not drawn)
inactive: dose: 100.0 mg/kg/injection, schedule: Q01DX001 (ip), vehicle: other 102 % of control | dose: 100.0 mg/kg/injection, schedule: Q04DX003 (ip), vehicle: other 120 % of control | dose: 200.0 mg/kg/injection, schedule: Q01DX001 (ip), vehicle: other 102 % of control | dose: 200.0 mg/kg/injection, schedule: Q04DX003 (ip), vehicle: other 114 % of control | dose: 400.0 mg/kg/injection, schedule: Q01DX001 (ip), vehicle: other 102 % of control | dose: 400.0 mg/kg/injection, schedule: Q04DX003 (ip), vehicle: other 96 % of control

COc1ccc(C(=O)Nc2ccccc2SC)cc1
inactive: dose: 100.0 mg/kg/injection, schedule: Q04DX002 (ip), vehicle: Klucel (hydroxypropylcellulose) (HPC) 99 % of control | dose: 200.0 mg/kg/injection, schedule: Q04DX002 (ip), vehicle: Klucel (hydroxypropylcellulose) (HPC) 96 % of control | dose: 400.0 mg/kg/injection, schedule: Q04DX002 (ip), vehicle: Klucel (hydroxypropylcellulose) (HPC) 102 % of control

CC1=N/C(=N\c2nc3cc(C)c(C)cc3[nH]2)NC(=O)CC1
inactive: dose: 75.0 mg/kg/injection, schedule: Q01DX001 (ip), vehicle: saline 104 % of control
